BindingDB's records for patent US20250243196 (The Cleveland Clinic Foundation, 2025)

Biological target: Citron Rho-interacting kinase (Homo sapiens, UniProt O14578)
Assay: TR-FRET Based Assay
From the text: Not found

Sequence of Citron Rho-interacting kinase (O14578 whole entry): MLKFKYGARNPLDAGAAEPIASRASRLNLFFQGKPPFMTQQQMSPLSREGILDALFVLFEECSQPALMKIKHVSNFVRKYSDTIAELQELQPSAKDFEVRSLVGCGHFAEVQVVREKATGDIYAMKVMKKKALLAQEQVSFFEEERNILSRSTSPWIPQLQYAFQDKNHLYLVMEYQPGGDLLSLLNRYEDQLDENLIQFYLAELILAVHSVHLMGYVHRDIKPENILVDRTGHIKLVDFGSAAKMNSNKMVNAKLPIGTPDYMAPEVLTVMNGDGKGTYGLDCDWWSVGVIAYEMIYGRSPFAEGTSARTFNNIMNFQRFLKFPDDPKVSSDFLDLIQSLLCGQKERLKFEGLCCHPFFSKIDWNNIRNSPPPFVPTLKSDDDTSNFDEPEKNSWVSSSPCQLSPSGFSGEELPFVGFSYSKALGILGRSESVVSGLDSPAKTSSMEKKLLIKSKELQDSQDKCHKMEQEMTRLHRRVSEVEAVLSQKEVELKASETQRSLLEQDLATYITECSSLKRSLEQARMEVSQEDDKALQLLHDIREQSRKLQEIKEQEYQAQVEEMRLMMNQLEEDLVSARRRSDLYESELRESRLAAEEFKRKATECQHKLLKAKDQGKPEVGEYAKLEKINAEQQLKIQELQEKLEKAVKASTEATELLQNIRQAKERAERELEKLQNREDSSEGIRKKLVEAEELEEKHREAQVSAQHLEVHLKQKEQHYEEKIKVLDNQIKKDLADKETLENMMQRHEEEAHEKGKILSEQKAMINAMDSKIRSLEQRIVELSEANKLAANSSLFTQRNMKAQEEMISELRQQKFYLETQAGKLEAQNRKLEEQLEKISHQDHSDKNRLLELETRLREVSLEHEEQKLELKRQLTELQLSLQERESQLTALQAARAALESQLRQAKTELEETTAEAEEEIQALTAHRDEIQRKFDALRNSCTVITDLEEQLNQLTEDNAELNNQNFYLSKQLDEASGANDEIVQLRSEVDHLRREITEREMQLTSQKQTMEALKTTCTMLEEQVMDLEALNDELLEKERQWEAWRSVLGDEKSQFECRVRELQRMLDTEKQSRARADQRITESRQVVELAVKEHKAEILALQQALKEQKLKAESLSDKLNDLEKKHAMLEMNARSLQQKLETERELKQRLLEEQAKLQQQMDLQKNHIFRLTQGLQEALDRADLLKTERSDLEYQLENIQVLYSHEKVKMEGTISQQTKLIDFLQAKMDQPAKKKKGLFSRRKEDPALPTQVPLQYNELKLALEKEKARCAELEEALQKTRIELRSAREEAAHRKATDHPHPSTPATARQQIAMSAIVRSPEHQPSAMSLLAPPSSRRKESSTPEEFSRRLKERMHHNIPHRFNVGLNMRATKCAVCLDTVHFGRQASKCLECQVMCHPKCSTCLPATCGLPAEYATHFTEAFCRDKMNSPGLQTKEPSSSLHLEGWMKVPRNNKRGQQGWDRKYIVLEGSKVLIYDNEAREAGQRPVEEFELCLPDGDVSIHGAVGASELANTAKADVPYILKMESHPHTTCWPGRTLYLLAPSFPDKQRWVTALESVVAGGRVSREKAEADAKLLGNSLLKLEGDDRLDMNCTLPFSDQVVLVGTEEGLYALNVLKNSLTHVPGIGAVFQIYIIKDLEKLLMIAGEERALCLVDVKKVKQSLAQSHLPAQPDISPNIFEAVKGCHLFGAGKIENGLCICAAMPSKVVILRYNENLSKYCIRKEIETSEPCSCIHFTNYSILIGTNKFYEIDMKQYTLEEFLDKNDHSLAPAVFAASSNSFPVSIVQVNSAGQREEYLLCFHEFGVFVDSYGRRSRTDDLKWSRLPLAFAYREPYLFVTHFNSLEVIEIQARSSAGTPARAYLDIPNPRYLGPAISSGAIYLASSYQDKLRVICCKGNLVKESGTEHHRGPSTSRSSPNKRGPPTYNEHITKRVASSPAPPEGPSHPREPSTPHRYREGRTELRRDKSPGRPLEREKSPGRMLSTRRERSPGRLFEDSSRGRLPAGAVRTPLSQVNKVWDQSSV

Row | Compound | IC50
1 | NC(CC1CCOCC1)C(=O)Nc1ccc(-c2ccnc3[nH]ccc23)cc1 (stereo unspecified) [US20250243196, Compound F-120] | 153 nM
2 | CNC(Cc1ccccc1)C(=O)Nc1ccc(-c2ccnc3[nH]ccc23)cc1 (stereo unspecified) [US20250243196, Compound F-121] | 3000 nM
3 | CN(C)C(Cc1ccccc1)C(=O)Nc1ccc(-c2ccnc3[nH]ccc23)cc1 (stereo unspecified) [US20250243196, Compound F-122] | 1500 nM
4 | NC(Cc1ccc(Cl)cc1)C(=O)Nc1ccc(-c2ccnc3[nH]ccc23)cc1 (stereo unspecified) [US20250243196, Compound F-123] | 1290 nM
5 | NC(Cc1cccc(Cl)c1)C(=O)Nc1ccc(-c2ccnc3[nH]ccc23)cc1 (stereo unspecified) [US20250243196, Compound F-124] | 536 nM
6 | NC(Cc1ccccc1Cl)C(=O)Nc1ccc(-c2ccnc3[nH]ccc23)cc1 (stereo unspecified) [US20250243196, Compound F-125] | 1770 nM
